From ChEMBL document CHEMBL1201862, “PubChem BioAssay data set” (2004)
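Five concentrations, 48 hours, 96-well plates. GI50 marks 50% less growth.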 Active and inactive are the calls of the source. Cut-off read from the data, not from the text of the source: active = GI50 up to about 1.1 µM and inactive = higher.

How the values were obtained:
Test in all cases: DTP human tumour cell line panel, 48 h
[1] = system: SN12C
[2] = system: HL-60
[3] = system: UACC-257
[4] = system: HCT-15
[5] = system: T47D
[6] = system: SF-539
[7] = system: NCI-H460
[8] = system: PC-3
[9] = system: CAKI-1
[10] = system: BT-549
[11] = system: EKVX
[12] = system: ACHN
[13] = system: Hs-578T
[14] = system: HCT-116
[15] = system: HCC 2998
[16] = system: RPMI-8226
[17] = system: HOP-62
[18] = system: MOLT-4
[19] = system: SK-MEL-28
[20] = system: MCF7

Row | SMILES | GI50 [1] | GI50 [2] | GI50 [3] | GI50 [4] | GI50 [5] | GI50 [6] | GI50 [7] | GI50 [8] | GI50 [9] | GI50 [10] | GI50 [11] | GI50 [12] | GI50 [13] | GI50 [14] | GI50 [15] | GI50 [16] | GI50 [17] | GI50 [18] | GI50 [19] | GI50 [20]
1 | O=C1N=C(Nc2ccccc2Cl)N/C1=C\c1ccc(Cl)cc1Cl | 25 µM (inactive) | 0.122 µM (active) | 75.3 µM (inactive) | 39.5 µM | > 100 µM (inactive) | 37.8 µM (inactive) | 49.2 µM (inactive) | 33.7 µM (inactive) | > 100 µM (inactive) | > 100 µM (inactive) | > 100 µM (inactive) | 62.1 µM (inactive) | > 100 µM (inactive) | 38.4 µM (inactive) | 53.5 µM (inactive) | > 100 µM (inactive) | 62.4 µM (inactive) | 66.8 µM (inactive) | 99.8 µM (inactive) | 31.4 µM (inactive)
2 | COc1ccc2cc(-c3ccc(OC)c(OC)c3)c(=O)oc2c1 | > 100 µM (inactive) | > 100 µM (inactive) | > 100 µM (inactive) | > 100 µM | > 100 µM (inactive) | > 100 µM (inactive) | > 100 µM (inactive) | > 100 µM (inactive) | > 100 µM (inactive) | > 100 µM (inactive) | > 100 µM (inactive) | > 100 µM (inactive) | 29.3 µM (inactive) | > 100 µM (inactive) | > 100 µM (inactive) | > 100 µM (inactive) | 69.5 µM (inactive) | > 100 µM (inactive) | > 100 µM (inactive) | > 100 µM (inactive)
3 | C=CCC1(C)CCCN(Cc2ccccc2)C1=O (stereo not given) | > 10 µM (inactive) | > 10 µM (inactive) | > 10 µM (inactive) | > 10 µM | > 10 µM (inactive) | > 10 µM (inactive) | > 10 µM (inactive) | > 10 µM (inactive) | > 10 µM (inactive) | > 10 µM (inactive) | > 10 µM (inactive) | > 10 µM (inactive) | > 10 µM (inactive) | > 10 µM (inactive) | > 10 µM (inactive) | > 10 µM (inactive) | > 10 µM (inactive) | > 10 µM (inactive) | > 10 µM (inactive) | > 10 µM (inactive)
4 | O=C(CSCC(=O)N/N=C/c1cccs1)N/N=C/c1cccs1 | > 100 µM (inactive) | > 100 µM (inactive) | > 100 µM (inactive) | > 100 µM | > 100 µM (inactive) | 52.8 µM (inactive) | > 100 µM (inactive) | 30.6 µM (inactive) | 46.6 µM (inactive) | 43.2 µM (inactive) | 61.5 µM (inactive) | 64.4 µM (inactive) | 61.1 µM (inactive) | > 100 µM (inactive) | > 100 µM (inactive) | 42.4 µM (inactive) | 46.3 µM (inactive) | 64.7 µM (inactive) | > 100 µM (inactive) | > 100 µM (inactive)
5 | CN1CCCC(C(=O)OCC(=O)C2(O)CCC3C4CCC5=CC(=O)CCC5(C)C4C(O)CC32C)C1 (stereo not given) | 8.73 µM (inactive) | 3.69 µM (inactive) | 18.3 µM (inactive) | 18.7 µM | 10.3 µM (inactive) | 2.12 µM (inactive) | 11.5 µM (inactive) | 11.4 µM (inactive) | 24.2 µM (inactive) | 16.7 µM (inactive) | 17.1 µM (inactive) | 17.9 µM (inactive) | 35.3 µM (inactive) | 8.97 µM (inactive) | 7.89 µM (inactive) | 4.23 µM (inactive) | 14.6 µM (inactive) | 18.7 µM (inactive) | 17.7 µM (inactive) | 12.6 µM (inactive)
6 | COC(=O)c1ccccc1/C=C1\Cc2c(C)cc(C)cc2C1=O | > 100 µM (inactive) | > 100 µM (inactive) | > 100 µM (inactive) | > 100 µM | > 100 µM (inactive) | > 100 µM (inactive) | > 100 µM (inactive) | > 100 µM (inactive) | > 100 µM (inactive) | > 100 µM (inactive) | > 100 µM (inactive) | > 100 µM (inactive) | > 100 µM (inactive) | > 100 µM (inactive) | > 100 µM (inactive) | > 100 µM (inactive) | > 100 µM (inactive) | > 100 µM (inactive) | > 100 µM (inactive) | > 100 µM (inactive)
7 | Cc1c2ccccc2cc2nc3ccccc3n12 | > 10 µM (inactive) | > 10 µM (inactive) | > 10 µM (inactive) | > 10 µM | > 10 µM (inactive) | > 10 µM (inactive) | > 10 µM (inactive) | > 10 µM (inactive) | > 10 µM (inactive) | > 10 µM (inactive) | > 10 µM (inactive) | > 10 µM (inactive) | > 10 µM (inactive) | > 10 µM (inactive) | > 10 µM (inactive) | > 10 µM (inactive) | > 10 µM (inactive) | > 10 µM (inactive) | > 10 µM (inactive) | > 10 µM (inactive)
8 | COc1cc(/C=N/n2c(-c3ccccc3)n[nH]c2=O)cc(OC)c1OC | 7.67 µM (inactive) | 0.518 µM (active) | > 100 µM (inactive) | 0.708 µM | > 100 µM (inactive) | 1.96 µM (inactive) | 0.826 µM (active) | 2.81 µM (inactive) | 1.1 µM (active) | 2.13 µM (inactive) | 11.4 µM (inactive) | 4.02 µM (inactive) | 3.56 µM (inactive) | 0.641 µM (active) | > 100 µM (inactive) | 1.38 µM (inactive) | 4.93 µM (inactive) | 0.733 µM (active) | > 28 µM (inactive) | 1.3 µM (inactive)
9 | COc1ccc2c(c1)CCC(CN1CCN(CCOC(c3ccc(F)cc3)c3ccc(F)cc3)CC1)=C2 | 11.1 µM (inactive) | 5.53 µM (inactive) | 9.18 µM (inactive) | 3.53 µM | 8.45 µM (inactive) | 13 µM (inactive) | 12.4 µM (inactive) | 16.8 µM (inactive) | 18.9 µM (inactive) | 13.6 µM (inactive) | 6.07 µM (inactive) | 13.3 µM (inactive) | 19.3 µM (inactive) | 7.26 µM (inactive) | 4.89 µM (inactive) | 4.52 µM (inactive) | 33.9 µM (inactive) | 10 µM (inactive) | 21.3 µM (inactive) | 13.6 µM (inactive)
10 | CCCCN1C(=O)C2Cc3c([nH]c4ccccc34)C(c3cccc(O)c3)N2C1=O (stereo not given) | 17.9 µM (inactive) | 22.8 µM (inactive) | 18.7 µM (inactive) | 18.7 µM | 24.4 µM (inactive) | 18.8 µM (inactive) | 20 µM (inactive) | 18.5 µM (inactive) | 18.7 µM (inactive) | 19 µM (inactive) | 17.9 µM (inactive) | 19.8 µM (inactive) | 27.9 µM (inactive) | 18.7 µM (inactive) | 18.9 µM (inactive) | 23.1 µM (inactive) | 18.5 µM (inactive) | 26.7 µM (inactive) | 19 µM (inactive) | 18.3 µM (inactive)
11 | O=C1Nc2c(Cl)cc(Cl)cc2/C1=N/Nc1ccccc1[N+](=O)[O-] | 85.9 µM (inactive) | 16.6 µM (inactive) | > 100 µM (inactive) | 72.1 µM | 70.5 µM (inactive) | 13 µM (inactive) | 54.5 µM (inactive) | 40.8 µM (inactive) | 39.4 µM (inactive) | 9.68 µM (inactive) | 5.7 µM (inactive) | 11.6 µM (inactive) | 8.32 µM (inactive) | 38.2 µM (inactive) | > 100 µM (inactive) | > 100 µM (inactive) | 5.47 µM (inactive) | 46.1 µM (inactive) | 75.7 µM (inactive) | > 100 µM (inactive)
